Assay [1] has as its target T1, PRMT5 (Homo sapiens, UniProt O14744).
T1 construct: purchased Viva (custom protein)
The assay is described as follows: PRMT5 biochemical IC50 assay with SAM as cofactor. As to conditions: PRMT5, SAM as cofactor; read-out: SAM IC50.

In assay [2] the target is T1, PRMT5. The assay is described as follows: PRMT5 biochemical IC50 assay with no cofactor. The settings on record: PRMT5, no cofactor; read-out: No Cofactor/ rel IC50. The source says: Table 1 indicates IC50 values (μM) against PRMT5 for exemplary compounds in the presence of SAM as cofactor, with no cofactor, and with MTA as cofactor, respectively (columns 4-6). […] Ki values can be calculated from the IC50 values as described in the Examples section. As detailed in the Examples section, for the assay performed in the presence of SAM, IC50=Ki×1.5 (Ki=IC50/1.5).

Assay [3] has as its target T1, PRMT5. The assay is described as follows: PRMT5 biochemical IC50 assay with MTA as cofactor. As to conditions: PRMT5, MTA as cofactor; read-out: MTA IC50.
The subject of assay [4] is HAP1 MTAP-intact cell line. As to the kind of experiment: SDMA in-cell western assay, HAP1 MTAP-intact. The assay is classed as cell-based. The settings on record: HAP1 MTAP-intact, read-out: MTAP HAP1 intact IC50. An outline of the steps: (§1)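 Compounds were tested in HAP1 cells differing only in MTAP status (endogenous expression versus null). Cellular SDMA levels were then measured by in-cell western, giving an IC50 in each background.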

The subject of assay [5] is HAP1 MTAP-deleted cell line. As to the kind of experiment: SDMA in-cell western assay, HAP1 MTAP-deleted. The settings on record: for IC50: Homo sapiens, HAP1, SDMA in-cell western, HAP1 MTAP-deleted, read-out: HAP 1 MTAP deleted IC50; for MTAP intact/deleted ratio: IC50 ratio HAP1 MTAP-intact / HAP1 MTAP-deleted, SDMA in-cell western. The class given is cell-based. Summed up: as §1

Assay [6] concerns HAP1 MTAP-deleted cell line. The assay is described as follows: Viability assay, MTAP-deleted cell line. The class given is cell-based. As to conditions: Homo sapiens, HAP1, viability, HAP1 MTAP-deleted cell line; read-out: HAP1 MTAP deleted viability. An excerpt: Table 1 additionally indicates IC50 values in a viability assay for the MTAP-deleted cell line (column 10), indicating the effect of treatment with compound on cell survival.

The mark [7] stands for this setting: Homo sapiens, HAP1, SDMA in-cell western.

Like-named read-outs stand apart in the source and are kept apart here.

T1 sequence (O14744 whole entry): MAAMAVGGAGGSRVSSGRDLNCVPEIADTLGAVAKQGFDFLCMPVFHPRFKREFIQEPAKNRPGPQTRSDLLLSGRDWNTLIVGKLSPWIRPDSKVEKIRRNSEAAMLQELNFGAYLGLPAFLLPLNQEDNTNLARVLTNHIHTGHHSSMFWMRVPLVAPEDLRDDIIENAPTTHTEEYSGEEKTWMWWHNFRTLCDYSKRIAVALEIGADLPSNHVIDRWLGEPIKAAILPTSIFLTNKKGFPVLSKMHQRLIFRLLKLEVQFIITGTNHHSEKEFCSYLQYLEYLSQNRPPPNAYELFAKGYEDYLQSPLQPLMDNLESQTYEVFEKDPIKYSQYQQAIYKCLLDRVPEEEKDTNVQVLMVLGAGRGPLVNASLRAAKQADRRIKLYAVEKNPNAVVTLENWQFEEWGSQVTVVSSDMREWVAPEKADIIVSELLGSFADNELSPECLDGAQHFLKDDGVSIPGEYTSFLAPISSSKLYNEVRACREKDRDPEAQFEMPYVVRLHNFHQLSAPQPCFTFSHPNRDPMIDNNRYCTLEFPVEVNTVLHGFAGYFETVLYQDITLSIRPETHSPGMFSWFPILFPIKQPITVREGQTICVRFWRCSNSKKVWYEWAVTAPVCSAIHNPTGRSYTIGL
T1 sequence (Q9BQA1 whole entry partner): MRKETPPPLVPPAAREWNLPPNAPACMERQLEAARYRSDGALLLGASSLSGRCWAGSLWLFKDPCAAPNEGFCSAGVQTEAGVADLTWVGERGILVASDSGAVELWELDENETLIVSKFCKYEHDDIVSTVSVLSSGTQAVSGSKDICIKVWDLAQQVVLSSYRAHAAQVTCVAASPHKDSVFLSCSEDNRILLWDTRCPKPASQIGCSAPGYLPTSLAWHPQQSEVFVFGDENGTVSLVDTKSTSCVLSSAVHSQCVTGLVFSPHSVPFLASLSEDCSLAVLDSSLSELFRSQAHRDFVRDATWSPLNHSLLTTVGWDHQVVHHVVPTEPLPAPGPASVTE

With `CCc1cc(NC(=O)C(=O)N2C[C@@H](C)CC[C@@H]2c2ccc3sc([C@@H]4CCN(C)C(=O)C4)nc3c2)cnc1N` [Compound 1256, N-(6-amino-5-ethyl-3-pyridyl)-2-[(2R,5S)-5-methyl-2-[2-(1-methyl-2-oxo-4-piperidyl)-1,3-benzothiazol-5-yl]-1-piperidyl]-2-oxo-acetamide], the IC50 at PRMT5 [1] was 50 to 500 nM; on PRMT5 [2], less than 50 nM; on PRMT5 [3] it was less than 50 nM; in assay [4] (setting [7]), less than 100 nM; in assay [5], less than 100 nM; in assay [6], less than 1000 nM. Besides, the “MTAP intact/deleted ratio” value in assay [5] is “A (an IC50 ratio greater than or equal to 10 fold)”.
As to `COc1ncc(NC(=O)C(=O)N2C[C@@H](C)CC[C@@H]2c2ccc3sc(C4CN(C)C4)nc3c2)cc1C(N)=O` [Compound 1257], the IC50 on PRMT5 [1] is less than 50 nM; on PRMT5 [2] it was less than 50 nM; at PRMT5 [3], less than 50 nM; in assay [4] (setting [7]), 100 to 1000 nM; in assay [5], less than 100 nM; in assay [6], less than 1000 nM. Moreover, the “MTAP intact/deleted ratio” value in assay [5] was “A (an IC50 ratio greater than or equal to 10 fold)”.
Take `CCc1cc(NC(=O)C(=O)N2C[C@@H](C)CC[C@@H]2c2ccc3sc([C@H]4C[C@@H](C)N(C)[C@@H](C)C4)nc3c2)cnc1N` [Compound 1261, N-(6-amino-5-ethylpyridin-3-yl)-2-((2R,5S)-5-methyl-2-(2-((2R,4r,6S)-1,2,6-trimethylpiperidin-4-yl)benzo[d]thiazol-5-yl)piperidin-1-yl)-2-oxoacetamide]: the IC50 at PRMT5 [1] is less than 50 nM; at PRMT5 [2], less than 50 nM; on PRMT5 [3] it was less than 50 nM; in assay [4] (setting [7]) it was less than 100 nM; in assay [5], less than 100 nM; in assay [6], less than 1000 nM. For the same compound, the “MTAP intact/deleted ratio” value in assay [5] is reported as “A (an IC50 ratio greater than or equal to 10 fold)”.
For `CCc1cc(NC(=O)C(=O)N2C[C@@H](C)CC[C@@H]2c2ccc3sc(CCCN(C)C)nc3c2)cnc1N` [Compound 1262, N-(6-amino-5-ethylpyridin-3-yl)-2-((2R,5S)-2-(2-(3-(dimethylamino)propyl)benzo[d]thiazol-5-yl)-5-methylpiperidin-1-yl)-2-oxoacetamide], the IC50 was less than 50 nM on PRMT5 [1]; less than 50 nM on PRMT5 [2]; less than 50 nM at PRMT5 [3]; less than 100 nM in assay [4] (setting [7]); less than 100 nM in assay [5]; less than 1000 nM in assay [6]. Moreover, the “MTAP intact/deleted ratio” value in assay [5] was “A (an IC50 ratio greater than or equal to 10 fold)”.
Consider `C[C@H]1CC[C@H](c2ccc3c(c2)CCN(C)C3)N(C(=O)C(=O)Nc2cnc(N)c(C3CC3)c2)C1` [Compound 1264, N-(6-Amino-5-cyclopropyl-3-pyridyl)-2-[(2R,5S)-5-methyl-2-(2-methyl-3,4-dihydro-1H-isoquinolin-6-yl)-1-piperidyl]-2-oxo-acetamide], for which the IC50 on PRMT5 [1] was 50 to 500 nM; at PRMT5 [2] it was less than 50 nM; at PRMT5 [3] it was less than 50 nM; in assay [4] (setting [7]) it was 100 to 1000 nM; in assay [5], less than 100 nM; in assay [6] it was less than 1000 nM. Moreover, in assay [5], the “MTAP intact/deleted ratio” value was “A (an IC50 ratio greater than or equal to 10 fold)”.
`Cc1cc(NC(=O)C(=O)N2C[C@@H](C)CC[C@@H]2c2ccc3sc(C4COC4)nc3c2)cnc1N` [Compound 1266, N-(6-amino-5-methylpyridin-3-yl)-2-((2R,5S)-5-methyl-2-(2-(oxetan-3-yl)benzo[d]thiazol-5-yl)piperidin-1-yl)-2-oxoacetamide]: the IC50 is 50 to 500 nM at PRMT5 [1]; less than 50 nM on PRMT5 [2]; less than 50 nM on PRMT5 [3]; less than 100 nM in assay [4] (setting [7]); less than 100 nM in assay [5]; less than 1000 nM in assay [6]. The “MTAP intact/deleted ratio” value in assay [5] was “A (an IC50 ratio greater than or equal to 10 fold)”.
Regarding `CCc1cc(NC(=O)C(=O)N2C[C@@H](C)CC[C@@H]2c2ccc3sc(N4CCOCC4)nc3c2)cnc1N` [Compound 1267, N-(6-amino-5-ethylpyridin-3-yl)-2-((2R,5S)-5-methyl-2-(2-morpholinobenzo[d]thiazol-5-yl)piperidin-1-yl)-2-oxoacetamide], the IC50 was 50 to 500 nM on PRMT5 [1]; less than 50 nM on PRMT5 [2]; less than 50 nM on PRMT5 [3]; 100 to 1000 nM in assay [4] (setting [7]); less than 100 nM in assay [5]; less than 1000 nM in assay [6]. The “MTAP intact/deleted ratio” value in assay [5] is “A (an IC50 ratio greater than or equal to 10 fold)”.
Consider `Cc1cc(NC(=O)C(=O)N2C[C@@H](C)CC[C@@H]2c2ccc3sc(C4CCN(C5COC5)CC4)nc3c2)cnc1N` [Compound 1268, N-(6-amino-5-methylpyridin-3-yl)-2-((2R,5S)-5-methyl-2-(2-(1-(oxetan-3-yl)piperidin-4-yl)benzo[d]thiazol-5-yl)piperidin-1-yl)-2-oxoacetamide], for which the IC50 is less than 50 nM on PRMT5 [1]; less than 50 nM at PRMT5 [2]; less than 50 nM at PRMT5 [3]; 100 to 1000 nM in assay [4] (setting [7]); less than 100 nM in assay [5]; less than 1000 nM in assay [6]. For the same compound, the “MTAP intact/deleted ratio” value in assay [5] is reported as “A (an IC50 ratio greater than or equal to 10 fold)”.
As for `CCc1cc(NC(=O)C(=O)N2C[C@@H](C)CC[C@@H]2c2ccn3cc(C4CCN(C)CC4)nc3c2)cnc1N` [Compound 1274, N-(6-amino-5-ethylpyridin-3-yl)-2-((2R,5S)-5-methyl-2-(2-(1-methylpiperidin-4-yl)imidazo[1,2-a]pyridin-7-yl)piperidin-1-yl)-2-oxoacetamide], the IC50 on PRMT5 [1] is 50 to 500 nM; on PRMT5 [2] it was less than 50 nM; on PRMT5 [3] it was less than 50 nM; in assay [4] (setting [7]) it was 100 to 1000 nM; in assay [5], less than 100 nM; in assay [6], less than 1000 nM. Moreover, in assay [5], the “MTAP intact/deleted ratio” value is “A (an IC50 ratio greater than or equal to 10 fold)”.
`CCc1cc(NC(=O)C(=O)N2C[C@@H](C)CC[C@@H]2c2ccc3sc([C@H]4CN(C)CCO4)nc3c2)cnc1N` [Compound 1275, N-(6-amino-5-ethylpyridin-3-yl)-2-((2R,5S)-5-methyl-2-(2-(4-methylmorpholin-2-yl)benzo[d]thiazol-5-yl)piperidin-1-yl)-2-oxoacetamide]: the IC50 on PRMT5 [1] was 50 to 500 nM; on PRMT5 [2], less than 50 nM; at PRMT5 [3], less than 50 nM; in assay [4] (SDMA in-cell western), 100 to 1000 nM; in assay [5], less than 100 nM; in assay [6] it was less than 1000 nM. Also, the “MTAP intact/deleted ratio” value in assay [5] is recorded as “A (an IC50 ratio greater than or equal to 10 fold)”.
Regarding `CCc1cc(NC(=O)C(=O)N2C[C@@H](C)CC[C@@H]2c2ccc(N3CCC(CN4CCCC4)CC3)cc2)cnc1N` [Compound 1276, N-(6-Amino-5-ethylpyridin-3-yl)-2-[(2R,5S)-5-methyl-2-(4-{4-[(pyrrolidin-1-yl)methyl]piperidin-1-yl}phenyl)piperidin-1-yl]-2-oxoacetamide], the IC50 on PRMT5 [1] is less than 50 nM; on PRMT5 [2] it was less than 50 nM; at PRMT5 [3] it was less than 50 nM; in assay [4] (setting [7]), 100 to 1000 nM; in assay [5], less than 100 nM; in assay [6], less than 1000 nM. In addition, the “MTAP intact/deleted ratio” value in assay [5] was “A (an IC50 ratio greater than or equal to 10 fold)”.
For the compound `CCc1cc(NC(=O)C(=O)N2C[C@@H](C)CC[C@@H]2c2ccc3sc(C4CCCN4C)nc3c2)cnc1N` (stereo partly drawn) [Compound 1282, N-(6-amino-5-ethylpyridin-3-yl)-2-((2R,5S)-5-methyl-2-(2-(1-methylpyrrolidin-2-yl)benzo[d]thiazol-5-yl)piperidin-1-yl)-2-oxoacetamide], the IC50 at PRMT5 [1] was 50 to 500 nM; on PRMT5 [2], less than 50 nM; at PRMT5 [3], less than 50 nM; in assay [4] (setting [7]), 100 to 1000 nM; in assay [5], less than 100 nM; in assay [6], less than 1000 nM. Moreover, in assay [5], the “MTAP intact/deleted ratio” value is given as “A (an IC50 ratio greater than or equal to 10 fold)”.
For `CCc1cc(NC(=O)C(=O)N2C[C@@H](C)CC[C@@H]2c2ccc3sc(C4CC5(C4)CN(C)C5)nc3c2)cnc1N` [Compound 1283, N-(6-amino-5-ethylpyridin-3-yl)-2-((2R,5S)-5-methyl-2-(2-(2-methyl-2-azaspiro[3.3]heptan-6-yl)benzo[d]thiazol-5-yl)piperidin-1-yl)-2-oxoacetamide], the IC50 at PRMT5 [1] is less than 50 nM; at PRMT5 [2], less than 50 nM; at PRMT5 [3], less than 50 nM; in assay [4] (setting [7]), less than 100 nM; in assay [5], less than 100 nM; in assay [6] it was less than 1000 nM. Also, the “MTAP intact/deleted ratio” value in assay [5] is “A (an IC50 ratio greater than or equal to 10 fold)”.

These data come from patent publication US11999727B2 (Tango Therapeutics, Inc., priority 2020, dated 2024).
